# Reference: PMC8215677 (Frontiers in Pharmacology, 2021)
# Where a name gives a salt, the structure may show the parent alone. Read-outs that look alike come from different tables or passages of the source. Marks after values point to notes of the source that are not given here.
# Legend:
# MDCK-MDR1 cell monolayer = assay: Transportation of BBR across MDCK-MDR1 cell monolayer; type: in vitro ADME, canine; conditions: for P app (AP-BL) / P app (BL-AP) / ERs (efflux rate): BBR 10 μg/ml
# Method: (§1) MDCK-MDR1 cells were seeded on a Merck Transwell polycarbonate membrane (NJ, United States) at a density of 2 × 10^5 cells/mL. The cells were cultured until the tight junctions were formed (transepithelial electrical resistance value >500 Ω cm2). Before the experiment, the media on both sides of the chamber were replaced with a warmed HBSS solution. The cells were then incubated for 20 min at 37°C.
# (§2) The unit of P app is cm/sec.
# [1] = as above; type: in vitro ADME, canine; conditions: dog, MDCK-MDR1
# Method: as §1, §2
# [2] = Pharmacokinetics of oral BBR in mice (portal vein and liver); type: in vivo, mice; conditions: for AUC0-∞ / AUC0–12 h / Cmax / MRT / Tmax / half-life / AUC(0-inf) / AUC(0-t): mice; for AUC(0-t): read-out: AUC0–12 h
# Method: The dosages of malic acid were, respectively, equal to the dosages of malic acid in the 1 and 10% water dilutions of the NADES. […] Six mice in each group were anesthetized using diethyl ether at 0.25, 0.5, 1, 2, 3, 4, 6, 8, or 12 h after administration. Blood samples were then collected from the portal vein into heparin-containing tubes. The plasma samples were obtained by centrifugation of the blood samples at 1,000 g for 10 min at 4°C. The livers of the mice were collected and homogenized in 10 × volume of water. At the end of the experiment, the mice were euthanized by cervical dislocation.
# A non-compartmental analysis using WinNonlin® software (Pharsight, CA, United States) was performed to obtain the pharmacokinetic parameters of berberine in mice. It should be noted that the pharmacokinetic parameters were calculated based on the average drug concentration at each time point because the mice were not continuously sampled.
# [3] = ref Liu et al., cited from earlier work
# [4] = Solubility of berberine hydrochloride in the NADES, its water dilutions and malic acid solutions; type: physicochemical
# Method: BBR was dissolved in pure water as a control. The solutions were ultrasonically treated for 1 h, and after full vortexing, the solutions were placed at room temperature for 1 h. Next, the solutions were centrifuged at 20,000 g for 10 min at 20°C. The obtained supernatant was filtered through a 0.22 μm membrane. The filtered solution was diluted with a certain volume of methanol, followed by injection into the LC-MS system for the quantitative analysis of BBR (Quantification of several Coptidis Rhizomaalkaloids).
# The concentrations of the primary metabolites were equal to their concentrations in the NADES, i.e., 490.5 mg/ml, 280.6 mg/ml, 517.7 mg/ml, and 19.0 mg/ml, respectively.
# mouse gut sacs = assay: Transportation of BBR in mouse gut sacs; type: in vitro ADME; conditions: BBR 200 μg/ml
# Method: After incubation, aliquots of buffer (100 μL) were, respectively, taken from the serosal side or mucosal side every 15–60 min and replaced with an equal volume of blank Krebs-Ringer buffer. The LC-MS system (Quantification of several Coptidis Rhizomaalkaloids) was used for the quantitative analysis of BBR.
# ICR mice = assay: Acute toxicity in mice; type: in vivo; conditions: malic acid 9,800, 2,940 or 980 mg/kg oral
# Method: Sixty ICR mice were randomly divided into three groups according to gender and body weight, with 20 mice in each group. After fasting for 12 h, the mice were orally administered with 0.2 ml/10 g body weight the NADES (the four-component NADES prepared with 350 μL water, the same below) or its 30 and 10% water dilutions, respectively. The symptoms of the mice were then observed, and the death time and the number of dead mice within 3 days were recorded.
# The above method was also used to evaluate the acute toxicity of malic acid at different dosages, i.e., 9,800, 2,940, or 980 mg/kg, which were, respectively, equal to the dosages of malic acid in the NADES and its 30%, and10% water dilutions.
# MDCK-MDR1 cells = assay: Cytotoxicity in MDCK-MDR1 cells (CCK-8); conditions: 4 and 24 h; for Cytotoxicity: p > 0.05
# Method: The cells were seeded into 96 well plate at the density of 3 × 10^4 cells per well. After 24 h incubation in the incubator, the culture medium was carefully sucked out, and then 200 μL DMEM medium containing 0.1, 0.3, 1 or 3% NADES was added. The control well was added with the same volume of DMEM medium. After incubation for 4 h or 24 h, 10% CCK-8 solution was added. After incubation for another 2 h, the absorbance at 450 nm was measured by using a microplate reader. The cytotoxicity of the NADES dilutions was evaluated by comparing the absorbance of the treatment groups to that of the control group.
# The above method was also used to evaluate the cytotoxicity of different concentrations of malic acid, i.e., 4.90, 1.47 or 0.49 mg/ml, which were, respectively, equal to the concentrations of malic acid in the 1, 0.3 or 0.1% dilutions of the NADES.
# [5] = system: intestinal paracellular tight junctions (mouse gut sac); assay: Transportation of FD4 across mouse gut sacs (tight junction integrity); type: in vitro ADME
# Method: Fluorescein isothiocyanate-labeled dextran (FD4) with a molecular weight of 4,400 g/moL, is usually used to test the integrity of intestinal paracellular tight junctions ([Ma et al., 2012]). The influence of various NADES dilutions (1, 3, and 10%) on the in vitro transportation of FD4 (3 mg/ml) across the mouse gut sac was determined. The concentrations of FD4 were determined using a fluorescence microplate reader (BioTek Instruments, Winooski, VT, United States), with excitation and emission at 485 and 528 nm, respectively, ([Ma et al., 2012]). In addition, the effects of NADES dilutions pretreatment on the transportation of FD4 across the mouse gut sacs were also determined. Several mice were orally administered with 10% NADES aqueous solution. The intestines were collected after 4 h, completely washed with blank Krebs-Ringer buffer, and subsequently used for the transportation study.
# [6] = livers, oral BBR 200 mg/kg dissolved in water (Control)
# [7] = livers, oral BBR 200 mg/kg in 1% NADES dilution
# [8] = livers, oral BBR 200 mg/kg in 10% NADES dilution
# [9] = livers, oral BBR 200 mg/kg in malic acid solution 98 mg/kg
# [10] = livers, oral BBR 200 mg/kg in malic acid solution 980 mg/kg
# [11] = mouse, liver, po, 200 mg/kg, livers, oral BBR 200 mg/kg dissolved in water (Control)
# [12] = mouse, liver, po, 200 mg/kg, livers, oral BBR 200 mg/kg in 1% NADES dilution
# [13] = mouse, liver, po, 200 mg/kg, livers, oral BBR 200 mg/kg in 10% NADES dilution
# [14] = mouse, liver, po, 200 mg/kg, livers, oral BBR 200 mg/kg in malic acid solution 98 mg/kg
# [15] = mouse, liver, po, 200 mg/kg, livers, oral BBR 200 mg/kg in malic acid solution 980 mg/kg
# [16] = mouse, portal vein plasma, po, 200 mg/kg, portal vein, oral BBR 200 mg/kg dissolved in water (Control)
# [17] = mouse, portal vein plasma, po, 200 mg/kg, portal vein, oral BBR 200 mg/kg in 1% NADES dilution
# [18] = mouse, portal vein plasma, po, 200 mg/kg, portal vein, oral BBR 200 mg/kg in 10% NADES dilution
# [19] = mouse, portal vein plasma, po, 200 mg/kg, portal vein, oral BBR 200 mg/kg in malic acid solution 98 mg/kg
# [20] = mouse, portal vein plasma, po, 200 mg/kg, portal vein, oral BBR 200 mg/kg in malic acid solution 980 mg/kg
smiles,measurement,setting,value
"COc1ccc2cc3[n+](cc2c1OC)CCc1cc2c(cc1-3)OCO2 [BBR, Berberine hydrochloride]",P app (AP-BL),MDCK-MDR1 cell monolayer; with 0.3% NADES,0.88 ± 0.13 ×10^−6 cm/s
same,P app (BL-AP),MDCK-MDR1 cell monolayer; with 0.3% NADES,13.1 ± 1.9 ×10^−6 cm/s
same,ERs (efflux rate),"MDCK-MDR1 cell monolayer; with 0.3% NADES, p < 0.05 vs Control",14.9*
same,P app (AP-BL),MDCK-MDR1 cell monolayer; with 1% NADES,20.1 ± 8.7 ×10^−6 cm/s
same,P app (BL-AP),MDCK-MDR1 cell monolayer; with 1% NADES,21.7 ± 1.4 ×10^−6 cm/s
same,ERs (efflux rate),"MDCK-MDR1 cell monolayer; with 1% NADES, p < 0.01 vs Control",1.1**
same,P app from AP to BL,MDCK-MDR1 cell monolayer; BBR alone,lower than 10^−6 cm/s
same,Papp A→B at 10 μg/ml,[1],0.41 ± 0.06 ×10⁻⁶ cm/s
same,Papp B→A at 10 μg/ml,[1],13.3 ± 0.4 ×10⁻⁶ cm/s
same,AUC0-∞,[2]; [6],68.4 μg·h/g liver
same,AUC0–12 h,[2]; [6],66.3 μg·h/g liver
same,Cmax,[2]; [6],16.7 μg/g liver
same,AUC0-∞,[2]; [7],80.9 μg·h/g liver
same,AUC0–12 h,[2]; [7],74.5 μg·h/g liver
same,Cmax,[2]; [7],29.3 μg/g liver
same,AUC0-∞,[2]; [8],112.5 μg·h/g liver
same,AUC0–12 h,[2]; [8],109.4 μg·h/g liver
same,Cmax,[2]; [8],34.8 μg/g liver
same,AUC0-∞,[2]; [9],73.8 μg·h/g liver
same,AUC0–12 h,[2]; [9],72.3 μg·h/g liver
same,Cmax,[2]; [9],38.0 μg/g liver
same,AUC0-∞,[2]; [10],88.3 μg·h/g liver
same,AUC0–12 h,[2]; [10],85.9 μg·h/g liver
same,Cmax,[2]; [10],30.0 μg/g liver
same,Toxic reaction after oral administration,"[2]; mouse, in vivo, po",no toxic reaction
same,MRT,[2]; [11],3.7 h
same,Tmax,[2]; [11],2 h
same,half-life,[2]; [11],2.2 h
same,MRT,[2]; [12],3.2 h
same,Tmax,[2]; [12],2 h
same,MRT,[2]; [13],3 h
same,Tmax,[2]; [13],1 h
same,half-life,[2]; [13],2.2 h
same,MRT,[2]; [14],3 h
same,Tmax,[2]; [14],2 h
same,half-life,[2]; [14],2.3 h
same,MRT,[2]; [15],2.5 h
same,Tmax,[2]; [15],1 h
same,half-life,[2]; [15],1.5 h
same,AUC(0-inf),[2]; [16],1130 ng·h/mL
same,MRT,[2]; [16],3.1 h
same,Tmax,[2]; [16],2 h
same,half-life,[2]; [16],1.7 h
same,AUC(0-t),[2]; [16],1120 ng·h/mL
same,Cmax,"[2]; mouse, portal vein plasma, po, 200 mg/kg, portal vein, oral BBR 200 mg/kg dissolved in water (Control), read-out: Cmax",321 ng/mL
same,AUC(0-inf),[2]; [17],2740 ng·h/mL
same,MRT,[2]; [17],2.9 h
same,Tmax,[2]; [17],2 h
same,half-life,[2]; [17],1.3 h
same,AUC(0-t),[2]; [17],2730 ng·h/mL
same,Cmax,"[2]; mouse, portal vein plasma, po, 200 mg/kg, portal vein, oral BBR 200 mg/kg in 1% NADES dilution, read-out: Cmax",975 ng/mL
same,AUC(0-inf),[2]; [18],3610 ng·h/mL
same,MRT,[2]; [18],2.4 h
same,Tmax,[2]; [18],1 h
same,half-life,[2]; [18],1.7 h
same,AUC(0-t),[2]; [18],3590 ng·h/mL
same,Cmax,"[2]; mouse, portal vein plasma, po, 200 mg/kg, portal vein, oral BBR 200 mg/kg in 10% NADES dilution, read-out: Cmax",1470 ng/mL
same,AUC(0-inf),[2]; [19],2300 ng·h/mL
same,MRT,[2]; [19],2.7 h
same,Tmax,[2]; [19],2 h
same,half-life,[2]; [19],2.7 h
same,AUC(0-t),[2]; [19],2230 ng·h/mL
same,Cmax,"[2]; mouse, portal vein plasma, po, 200 mg/kg, portal vein, oral BBR 200 mg/kg in malic acid solution 98 mg/kg, read-out: Cmax",972 ng/mL
same,AUC(0-inf),[2]; [20],3070 ng·h/mL
same,MRT,[2]; [20],2.1 h
same,Tmax,[2]; [20],1 h
same,half-life,[2]; [20],1.4 h
same,AUC(0-t),[2]; [20],3060 ng·h/mL
same,Cmax,"[2]; mouse, portal vein plasma, po, 200 mg/kg, portal vein, oral BBR 200 mg/kg in malic acid solution 980 mg/kg, read-out: Cmax",1250 ng/mL
same,Fraction of oral BBR directly removed with feces,[3]; 2010,about 56%
same,Fraction of oral BBR eliminated by intestinal efflux transporters and drug metabolizing enzymes,[3]; 2010,about 43.5%
same,Oral bioavailability,[3]; 2010,0.36%
same,Fraction of BBR directly discharged from the body after oral administration,[3]; 2016,about 56%
same,Fraction of oral BBR eliminated during intestinal absorption,[3]; 2016,43.5%
same,solubility,"[4]; NADES (undiluted), in the NADES (100%), room temperature (20°C)",≥ 20 mg/mL
same,Solubility of berberine hydrochloride,"[4]; as the pH of the malic acid solution was increased by addition of NaOH, p < 0.01",increased
same,Solubility of BBR compared with water,"[4]; in 10% water dilution of NADES, p < 0.01",higher
same,Solubility of BBR compared with water,"[4]; in 30% water dilution of NADES, p < 0.01",higher
O=C(O)CC(O)C(=O)O (centres unmarked) [malic acid],Effect on efflux of BBR in gut sacs,mouse gut sacs; malic acid 14.7 mg/ml or more,promoted the efflux
same,Effect on absorption of BBR in gut sacs,"mouse gut sacs; malic acid 4.9–49.0 mg/ml, concentration-dependent",promoted the absorption
same,Acute toxicity,ICR mice,significant acute toxicity
same,Cytotoxicity,MDCK-MDR1 cells; 0.49 mg/ml malic acid,no significant cytotoxicity
same,Cytotoxicity,MDCK-MDR1 cells; 1.47 mg/ml malic acid,no significant cytotoxicity
same,Cell viability,"MDCK-MDR1 cells; 4.9 mg/ml malic acid, p < 0.01",completely lost
same,Effect on absorption of FD4 across mouse gut sacs,"[5]; malic acid 4.9, 14.7, 49.0 mg/ml present, concentration dependent, p < 0.01",increased the absorption
same,Reversibility of the effect on FD4 absorption,[5]; malic acid pretreatment for 4 h,reversible
